In patent US20160271160A1, “HCV POLYMERASE INHIBITORS” (MEDIVIR AB, priority 2013, published 2016):

Tests used:
Format in all cases: cell-based
[1] = system: HCV GT1b (stable); assay: HCV GT1b (stable) replicon; details: Hepatitis C virus, wild type, geometric mean
From the text: (§1) The compound of Example 2 was further evaluated to assess the antiviral activity against genotypes 1-6 of HCV, both wild type and a number of clinically relevant mutant strains. The result of the evaluation together with the average EC50 of a genotypes and the corresponding values for compound 40ii of WO2014/058801 are summarised in Tables 2 and 3.

[2] = system: HCV GT1b (transient); assay: HCV GT1b (transient) replicon; details: Hepatitis C virus, wild type, geometric mean
From the text: as §1

[3] = system: HCV GT1a NS5B in con1 background; assay: HCV GT1a chimeric replicon; details: Hepatitis C virus
From the text: as §1

[4] = system: HCV GT2a virus; assay: HCV GT2a virus; details: Hepatitis C virus, wild type, geometric mean
From the text: as §1

[5] = system: HCV GT3a NS5B in con1 background; assay: HCV GT3a chimeric replicon; details: Hepatitis C virus
From the text: as §1

[6] = system: HCV GT4a NS5B in con1 background; assay: HCV GT4a chimeric replicon; details: Hepatitis C virus
From the text: as §1

[7] = system: HCV GT5a NS5B in con1 background; assay: HCV GT5a chimeric replicon; details: Hepatitis C virus
From the text: as §1

[8] = system: HCV GT6a NS5B in con1 background; assay: HCV GT6a chimeric replicon; details: Hepatitis C virus
From the text: as §1

[9] = system: genotypes 1-6 of HCV, wild type; assay: Wild type HCV genotype panel, average
From the text: as §1

[10] = system: HCV GT1b S282T; assay: HCV GT1b S282T mutant replicon
From the text: as §1

[11] = system: HCV GT1a S282T; assay: HCV GT1a S282T chimeric mutant replicon
From the text: as §1

[12] = system: HCV GT3a S282T; assay: HCV GT3a S282T chimeric mutant replicon
From the text: as §1

[13] = system: HCV GT4a S282T; assay: HCV GT4a S282T chimeric mutant replicon
From the text: as §1

[14] = system: HCV mutant strains; assay: Mutant HCV panel, average
From the text: as §1

SMILES: CC(C)OC(=O)[C@H](C)OP(=O)(OC[C@H]1O[C@@H](n2ccc(=O)[nH]c2=O)[C@](C)(Cl)[C@@H]1O)Oc1ccccc1 (some centres unmarked) [Cpd. 40ii of WO2014/058801]
- EC50 [1]: 91 nM
- EC50 [2]: 93 nM
- EC50 [3]: 140 nM
- EC50 [4]: 26 nM
- EC50 [5]: 139 nM
- EC50 [6]: 149 nM
- EC50 [7]: 105 nM
- EC50 [8]: 170 nM
- EC50 ([9]; Hepatitis C virus, wild type assays, arithmetic mean +/− SEM): 114 nM
- potency increase vs cpd. 40ii of WO2014/058801 ([9]; wild type, from AVG EC50): 1.0
- EC50 ([10]; Hepatitis C virus, geometric mean): 344 nM
- FC vs WT ([10]; fold change of EC50): 3.7
- FC vs WT ([11]; HCV GT1a S282T, fold change of EC50): 4.0
- EC50 ([11]; Hepatitis C virus, GT1A): 554 nM
- FC vs WT ([12]; HCV GT3a S282T, fold change of EC50): 2.6
- EC50 ([12]; Hepatitis C virus, GT3A): 366 nM
- FC vs WT ([13]; HCV GT4a S282T, fold change of EC50): 12
- EC50 ([13]; Hepatitis C virus, GT4A): 1720 nM
- EC50 ([14]; Hepatitis C virus, read-out: AVG EC50): 746 nM
- potency increase vs cpd. 40ii of WO2014/058801 ([14]; {}): 1.0
